Test results published in article PMC11939327, “Chaetocin, a Natural Inhibitor of Transketolase, Suppresses the Non-Oxidative Pentose Phosphate Pathway and Inhibits the Growth of Drug-Resistant Non-Small Cell Lung Cancer” (Antioxidants, 2025).

Target: T1, transketolase (TKT) (Homo sapiens, UniProt P29401)
T1 sequence (P29401 1-623): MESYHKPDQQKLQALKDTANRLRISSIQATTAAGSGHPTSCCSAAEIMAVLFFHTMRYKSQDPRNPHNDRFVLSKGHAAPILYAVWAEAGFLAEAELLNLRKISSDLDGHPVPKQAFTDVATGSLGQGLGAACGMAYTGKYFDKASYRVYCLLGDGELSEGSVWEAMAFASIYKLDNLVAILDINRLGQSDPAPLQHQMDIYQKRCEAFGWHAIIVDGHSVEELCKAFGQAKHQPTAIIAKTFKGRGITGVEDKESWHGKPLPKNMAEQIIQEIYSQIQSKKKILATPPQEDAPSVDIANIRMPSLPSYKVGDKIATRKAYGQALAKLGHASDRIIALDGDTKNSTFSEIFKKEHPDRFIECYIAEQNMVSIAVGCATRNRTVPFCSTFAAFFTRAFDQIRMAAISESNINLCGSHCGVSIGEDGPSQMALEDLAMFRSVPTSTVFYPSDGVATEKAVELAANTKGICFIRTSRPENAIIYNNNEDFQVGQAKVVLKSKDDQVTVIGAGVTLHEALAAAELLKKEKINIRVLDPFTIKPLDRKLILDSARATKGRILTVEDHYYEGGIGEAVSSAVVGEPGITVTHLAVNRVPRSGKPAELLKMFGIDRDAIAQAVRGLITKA
Experiment: Bio-layer interferometry with biotinylated TKT on SA biosensors; supported by DARTS and CETSA in A549/DDP cells
Type: binding

Compound: CN1C(=O)[C@@]23C[C@]4([C@]56C[C@@]78SS[C@@](CO)(C(=O)N7[C@H]5Nc5ccccc56)N(C)C8=O)c5ccccc5N[C@@H]4N2C(=O)[C@]1(CO)SS3 [chaetocin]
- Kd: 63.2 µM
